According to ChEMBL document CHEMBL1287811, “Two new cytotoxic labdane diterpenes from the rhizomes of Hedychium coronarium” (2010):

Columns and labels:
Format in all cases: functional
A549 = assay: Growth inhibition of human A549 cells by Sulforhodamine B assay; conditions: for CC50: read-out: LC50 (the source's name)
MCF7 = assay: Growth inhibition of human MCF7 cells by Sulforhodamine B assay
SK-N-SH = assay: Growth inhibition of human SK-N-SH cells by Sulforhodamine B assay
HeLa = assay: Growth inhibition of human HeLa cells by Sulforhodamine B assay

CCOC(=O)/C=C/c1ccc(O)c(OC)c1 [ETHYL FERULATE]
GI50 (A549): 1.2 µM
CC50 (A549): 5.8 µM
GI50 (MCF7): 86.3 µM
GI50 (SK-N-SH): 22.3 µM
GI50 (HeLa): 52.8 µM

COC(=O)Nc1nc2cc(C(=O)c3cccs3)ccc2[nH]1 [NOCODAZOLE]
GI50 (A549): < 0.1 µM
CC50 (A549): < 0.1 µM
GI50 (MCF7): < 0.1 µM
GI50 (SK-N-SH): 0.66 µM
GI50 (HeLa): 0.75 µM

CC1(C)CCC[C@]2(C)[C@@H](/C=C/C3=CCOC3=O)C(C=O)=CC(=O)[C@@H]12
GI50 (A549): 18.5 µM
CC50 (A549): 45.9 µM
GI50 (MCF7): 69.9 µM
LC50 (concentration killing 50% of cells) (MCF7): > 100 µM
GI50 (SK-N-SH): 38.7 µM
LC50 (SK-N-SH): 48.5 µM
GI50 (HeLa): 76.9 µM
LC50 (HeLa): > 100 µM

CC1=CC(=O)[C@H]2C(C)(C)CCC[C@]2(C)[C@H]1/C=C/C1=CCOC1=O
GI50 (A549): 21.7 µM
CC50 (A549): 39.6 µM
GI50 (MCF7): 15.7 µM
LC50 (concentration killing 50% of cells) (MCF7): 19.8 µM
GI50 (SK-N-SH): 8.2 µM
LC50 (SK-N-SH): 20.8 µM
GI50 (HeLa): 83.6 µM
LC50 (HeLa): > 100 µM

CC1=CC(=O)[C@H]2C(C)(C)CCC[C@]2(C)[C@H]1/C=C/c1ccoc1 [HEDYCHENONE]
GI50 (A549): 7.4 µM
CC50 (A549): 14 µM
GI50 (MCF7): 14.9 µM
LC50 (concentration killing 50% of cells) (MCF7): 19.8 µM
GI50 (SK-N-SH): 11.6 µM
LC50 (SK-N-SH): 17.2 µM
GI50 (HeLa): 63.2 µM
LC50 (HeLa): 81.5 µM

CC1(C)CCC[C@]2(C)[C@@H](/C=C/C3=CC(=O)OC3)C(CO)=C(O)C(=O)[C@@H]12
GI50 (A549): 26 µM
CC50 (A549): 48.7 µM
GI50 (MCF7): 12 µM
LC50 (concentration killing 50% of cells) (MCF7): 15.4 µM
GI50 (SK-N-SH): 12.1 µM
LC50 (SK-N-SH): 19.3 µM
GI50 (HeLa): 79.7 µM
LC50 (HeLa): > 100 µM

C=C1CC[C@H]2C(C)(C)CCC[C@]2(C)[C@H]1C/C=C1/CC(OC)OC1=O (some centres not stated) [CORONARIN D METHYL ETHER]
GI50 (A549): 30 µM
CC50 (A549): 71.3 µM
GI50 (MCF7): 25.3 µM
LC50 (concentration killing 50% of cells) (MCF7): 31.6 µM
GI50 (SK-N-SH): 13.6 µM
LC50 (SK-N-SH): 19.1 µM
GI50 (HeLa): > 100 µM
LC50 (HeLa): > 100 µM

C=C1C(C/C=C2\COC(=O)C2)[C@@]2(C)CCCC(C)(C)[C@@H]2C[C@@H]1O (some centres not stated) [PACOVATININ A]
GI50 (A549): 15.1 µM
CC50 (A549): 36.2 µM
GI50 (MCF7): 44.7 µM
LC50 (concentration killing 50% of cells) (MCF7): 55.6 µM
GI50 (SK-N-SH): 54.8 µM
LC50 (SK-N-SH): 59.9 µM
GI50 (HeLa): 62.1 µM
LC50 (HeLa): 80.7 µM

C=C1CC[C@H]2C(C)(C)CCC[C@]2(C)[C@H]1C/C=C1/CC(O)OC1=O (some centres not stated) [CORONARIN D]
GI50 (A549): 8 µM
CC50 (A549): 14 µM
GI50 (MCF7): 17.4 µM
LC50 (concentration killing 50% of cells) (MCF7): 21.9 µM
GI50 (SK-N-SH): 20.1 µM
LC50 (SK-N-SH): 32 µM
GI50 (HeLa): 47 µM
LC50 (HeLa): 60.6 µM

C=C1CC[C@H]2C(C)(C)CCC[C@]2(C)[C@H]1CCC1=CC(O)OC1=O (some centres not stated) [CORONARIN C]
GI50 (A549): 4.8 µM
CC50 (A549): 9.5 µM
GI50 (MCF7): 32.6 µM
LC50 (concentration killing 50% of cells) (MCF7): 40.7 µM
GI50 (SK-N-SH): 25.8 µM
LC50 (SK-N-SH): 33.7 µM
GI50 (HeLa): 36.3 µM
LC50 (HeLa): 45.9 µM

CC(C)(O)C1CC[C@@]2(C)CCC[C@@](C)(O)[C@@H]2C1 (some centres not stated) [CRYPTOMERIDIOL]
GI50 (A549): 14.5 µM
CC50 (A549): 27.4 µM
GI50 (MCF7): 62.3 µM
GI50 (SK-N-SH): 73.6 µM
GI50 (HeLa): 75.6 µM

COc1cc(/C=C/C=O)ccc1O [CONIFERYL ALDEHYDE]
GI50 (A549): 1.7 µM
CC50 (A549): 11.4 µM
GI50 (MCF7): 39.5 µM
GI50 (SK-N-SH): 10.6 µM
GI50 (HeLa): 61.8 µM

CC1=CC(=O)[C@H]2C(C)(C)CCC[C@]2(C)C1/C=C/C1=CC(O)OC1=O (some centres not stated)
GI50 (A549): 10.6 µM
CC50 (A549): 21.2 µM
GI50 (MCF7): 28.5 µM
LC50 (concentration killing 50% of cells) (MCF7): 34.8 µM
GI50 (SK-N-SH): 17.5 µM
LC50 (SK-N-SH): 22.8 µM
GI50 (HeLa): > 100 µM
LC50 (HeLa): > 100 µM
